The values that follow come from ChEMBL document CHEMBL2396528, “Synthesis of new conjugated coumarin-benzimidazole hybrids and their anticancer activity” (2013).

Holding throughout (assay type): functional
The test system of one test is LOX IMVI. As to the kind of experiment: Cytotoxicity against human LOXIMVI cells assessed as growth inhibition at 10 uM after 48 hrs by SRB assay relative to control. The following applies: read-out: GI.
The next test has as its system CAKI-1. As to the kind of experiment: Cytotoxicity against human Caki1 cells assessed as growth inhibition at 10 uM after 48 hrs by SRB assay relative to control. The following applies: CAKI-1, 48 h, read-out: GI.
The subject of a further test is SK-MEL-5. The test can be described thus: Cytotoxicity against human SK-MEL-5 cells assessed as growth inhibition at 10 uM after 48 hrs by SRB assay relative to control. The following applies: SK-MEL-5, 48 h, read-out: GI. Background: Sulforhodamine B stains cellular protein and so reports cell mass.
The test system of a further test is MCF7. As to the kind of experiment: Cytotoxicity against human MCF7 cells assessed as growth inhibition at 10 uM after 48 hrs by SRB assay relative to control. The conditions noted are these: MCF7, 48 h, read-out: GI.
The test system of another test is NCI-H522. The test can be described thus: Cytotoxicity against human NCI-H522 cells assessed as growth inhibition at 10 uM after 48 hrs by SRB assay relative to control. The conditions noted are these: NCI-H522, 48 h, read-out: GI.
The subject of the next test is DU-145. As to the kind of experiment: Cytotoxicity against human DU145 cells assessed as growth inhibition at 10 uM after 48 hrs by SRB assay relative to control. The following applies: DU-145, 48 h, read-out: GI.
The next test has as its system NCI-H23. The test can be described thus: Cytotoxicity against human NCI-H23 cells assessed as growth inhibition at 10 uM after 48 hrs by SRB assay relative to control. The following applies: NCI-H23, 48 h, read-out: GI.
In another test the test system is SK-OV-3. As to the kind of experiment: Cytotoxicity against human SKOV3 cells assessed as growth inhibition at 10 uM after 48 hrs by SRB assay relative to control. The following applies: SK-OV-3, 48 h, read-out: GI.
In another test the test system is SF-539. The test can be described thus: Cytotoxicity against human SF539 cells assessed as growth inhibition at 10 uM after 48 hrs by SRB assay relative to control. The conditions noted are these: for inhibition of growth at 10 µM: SF-539, 48 h, read-out: GI.
Another test has as its system SF-295. The test can be described thus: Cytotoxicity against human SF295 cells assessed as growth inhibition at 10 uM after 48 hrs by SRB assay relative to control. The conditions noted are these: SF-295, 48 h, read-out: GI.
Another test concerns U-251. The test can be described thus: Cytotoxicity against human U251 cells assessed as growth inhibition at 10 uM after 48 hrs by SRB assay relative to control. The following applies: U-251, 48 h, read-out: GI.
The test system of the next test is NCI-H322M. As to the kind of experiment: Cytotoxicity against human NCI-H322M cells assessed as growth inhibition at 10 uM after 48 hrs by SRB assay relative to control. The following applies: read-out: GI.
The next test deals with HCT-116. As to the kind of experiment: Cytotoxicity against human HCT116 cells assessed as growth inhibition at 10 uM after 48 hrs by SRB assay relative to control. The following applies: HCT-116, 48 h, read-out: GI.
The next test concerns HL-60(TB). The test can be described thus: Cytotoxicity against human HL-60(TB) cells assessed as growth inhibition at 10 uM after 48 hrs by SRB assay relative to control. The following applies: HL-60, 48 h, read-out: GI.
In the next test the test system is A549. As to the kind of experiment: Cytotoxicity against human A549 cells assessed as growth inhibition at 10 uM after 48 hrs by SRB assay relative to control. The following applies: A549, 48 h, read-out: GI.
The test system of another test is RPMI-8226. As to the kind of experiment: Cytotoxicity against human RPMI8226 cells assessed as growth inhibition at 10 uM after 48 hrs by SRB assay relative to control. The following applies: RPMI-8226, 48 h, read-out: GI.

SMILES strings stand for the structures. Activity calls are given as the source filed them. No cut-off for these calls is given here. Where only a bound is given, the exact number is not on record here.

Consider `NCCNc1ccc2cc(-c3nc4ccccc4[nH]3)c(=O)oc2c1`, for which the inhibition of growth at 10 µM with LOX IMVI, in the test with CAKI-1, with SK-MEL-5, with MCF7, in the test on NCI-H522 and with DU-145 was under 20% in each case. The inhibition of growth at 10 µM in the test with NCI-H23, in the test with SK-OV-3, with SF-539, in the test on SF-295, with U-251 and in the test with NCI-H322M was under 20% throughout. Also, the inhibition of growth at 10 µM in the test with HCT-116, in the test with HL-60(TB) and in the test on A549 was under 20% each time.

With `O=c1oc2cc(Br)ccc2cc1-c1nc2ccccc2[nH]1`, the inhibition of growth at 10 µM is under 20% with LOX IMVI; under 20% with CAKI-1; under 20% in the test with SK-MEL-5; 30% in the test on MCF7; 20.6% in the test on NCI-H522; under 20% in the test with RPMI-8226. For the same compound, the inhibition of growth at 10 µM with DU-145 was 23.6%; in the test on NCI-H23 it was under 20%; in the test with SK-OV-3, under 20%; in the test with SF-539, under 20%; with SF-295 it was under 20%; in the test on U-251, under 20%. The inhibition of growth at 10 µM in the test with NCI-H322M, in the test with HCT-116, in the test on HL-60(TB) and in the test on A549 was under 20% throughout.

On to `CN1CCN(c2ccc3cc(-c4nc5ccccc5[nH]4)c(=O)oc3c2)CC1`, for which the inhibition of growth at 10 µM in the test with LOX IMVI was under 20%; in the test with CAKI-1, under 20%; in the test on SK-MEL-5, under 20%; in the test on MCF7, 26.3%; in the test on NCI-H522, under 20%; in the test with RPMI-8226, 35.4%. Also, the inhibition of growth at 10 µM in the test with DU-145 is under 20%; in the test with NCI-H23, 25.5%; in the test with SK-OV-3, under 20%; in the test with SF-539, under 20%; in the test with SF-295, under 20%; with U-251, under 20%. The inhibition of growth at 10 µM was under 20% in the test on NCI-H322M, under 20% in the test on HCT-116, 27.1% in the test on HL-60(TB) and under 20% in the test on A549.

With `O=c1oc2cc(N3CCOCC3)ccc2cc1-c1nc2ccccc2[nH]1`, the inhibition of growth at 10 µM in the test with LOX IMVI is under 20%; in the test on CAKI-1, under 20%; in the test with SK-MEL-5 it was under 20%; with MCF7 it was 62.1%; with NCI-H522, under 20%; in the test on RPMI-8226 it was under 20%. Further, the inhibition of growth at 10 µM in the test on DU-145, with NCI-H23, with SK-OV-3, in the test with SF-539, in the test on SF-295 and in the test with U-251 was under 20% in each case. The inhibition of growth at 10 µM with NCI-H322M, with HCT-116, with HL-60(TB) and in the test on A549 was under 20% each time.

On to `O=c1oc2cc(NCCN3CCOCC3)ccc2cc1-c1nc2ccccc2[nH]1`, for which the inhibition of growth at 10 µM with LOX IMVI, in the test with CAKI-1, in the test on SK-MEL-5, with MCF7, in the test on NCI-H522 and with RPMI-8226 was under 20% in each case. The inhibition of growth at 10 µM with DU-145, with NCI-H23, in the test on SK-OV-3, in the test with SF-539, in the test with SF-295 and with U-251 was under 20% throughout. The inhibition of growth at 10 µM in the test on NCI-H322M, in the test on HCT-116, with HL-60(TB) and in the test on A549 was under 20% each time.

Regarding `O=c1oc2cc(NCCO)ccc2cc1-c1nc2ccccc2[nH]1`, the inhibition of growth at 10 µM in the test with LOX IMVI is 54.3%; in the test on CAKI-1, 22.4%; in the test on SK-MEL-5, 35.8%; with MCF7, 62.1%; in the test with NCI-H522, 23.7%; with RPMI-8226 it was 46.6%. For the same compound, the inhibition of growth at 10 µM in the test with DU-145 was under 20%; with NCI-H23, 32.9%; with SK-OV-3, under 20%; in the test on SF-539, 25.9%; with SF-295, 24.5%; with U-251, 20.7%. Further, the inhibition of growth at 10 µM with NCI-H322M is 29.7%; with HCT-116, 62.2%; in the test with HL-60(TB), 80.5%; with A549, under 20%.

For the compound `O=c1[nH]cc(F)c(=O)[nH]1` [FLUOROURACIL], the inhibition of growth at 10 µM with LOX IMVI was 30.4%; in the test on CAKI-1 it was 39.4%; in the test on MCF7, 11.5%; in the test with NCI-H522, 58%; in the test with RPMI-8226 it was 41.4%; with DU-145 it was 35.5%. Further, the inhibition of growth at 10 µM was 39% with NCI-H23; 77.5% in the test on SK-OV-3; 69% in the test on SF-295; 50.3% with U-251; 59.5% in the test on NCI-H322M; 17.8% with HCT-116. The inhibition of growth at 10 µM in the test with HL-60(TB) is 47.9%; in the test with A549, 34.2%. Moreover, the “growth inhibition (GI)” value in the test on SF-539 was “Active”.
